In PMC4213378, “Pharmacokinetics and Efficacy of the Spleen Tyrosine Kinase Inhibitor R406 after Ocular Delivery for Retinoblastoma” (Pharmaceutical Research, 2014):
≈ marks a conversion by molar mass, not a printed value.

Experiments:
retinoblastoma cells = system: retinoblastoma cells; parameters: method as in PMID 22237022; settings: cited from earlier work
[1] = system: human orthotopic retinoblastoma xenografts; parameters: method as in PMID 22237022; settings: cited from earlier work
[2] = Plasma pharmacokinetics after oral or subconjunctival administration; format: in vivo, mouse; settings: local (subconjunctival), castor oil emulsion 6.5 mM, 65 nmol per eye; mice
Protocol: (§1) For oral delivery of R788, the target dose of 25 mg/kg R788 was administered by oral gavage as a 4 mM solution in 0.01 N citrate buffer, pH 6 ([9]). For subconjunctival administration, R788 was prepared at a concentration of 4 mM in 2% PEG-800 and filtered through a 0.22 μm filter prior to use (see Table S1). R788 was also administered subconjunctivally as a suspension at a concentration of 25 mM in 10% 2-hydroxylpropyl-β-cyclodextrin (HPβCD, Sigma-Aldrich). For subconjunctival administration, R406 phenylsulfonate salt was administered at a concentration of 800–900 μM as a cosolvent solution in a formulation of 5% Cremaphor-eL, 0.5% ethanol, 0.2% Tween 80 and 94.3% PBS, filtered through a 0.22 μm filter prior to use (see Table S2). R406 phenylsulfonate salt was also administered subconjunctivally at a dose of 31.4 mM solution in DMSO. R406 free base was administered subconjunctivally at a concentration of 6.5 mM as a 25% castor oil (Sigma-Aldrich) emulsion. This emulsion was prepared by mixing castor oil: ethanol (1:1) solution of R406 (approx. 35 mM), in vacuo evaporation of the ethanol, and centrifugation to remove any excess R406, then emulsifying the R406 oil phase in an aqueous phase comprised of Cremaphor-eL, Tween 80 and PBS (final composition of the emulsion: 25% castor oil, 5% Cremaphor-eL, 0.2% Tween-80, 69.8% PBS) by probe sonication. For intravitreal injection, R788 solution was prepared by filtering a 0.12 mM (120 μM) solution of R788 in saline through a 0.22 μm filter. […] For topical delivery, 25–30 mM suspensions were prepared in 5% HPβCD. R406 or R788 concentration in all formulations was determined by UPLC prior to study (in cases where formulation was filtered before administration, concentration was determined post-filtering) Table I.
(§2) For the systemic delivery study R788 was administered as a single bolus dose (25 mg/kg, 10 mL/kg volume) by oral gavage. For the subconjunctival administration study R788 or R406 (10 µL of formulation) was injected into the subconjunctival space of an anesthetized mouse using a Hamilton microliter syringe (Hamilton company, Reno NV). For the intravitreal administration study, R788 (5 μL of […] in saline) was administered to each eye via direct injection. To perform the intravitreal injection, mice were anesthetized, a small incision between the sclera and the cornea was created with a […] needle, and the R788 was injected into the vitreous using a Hamilton microliter syringe. For the topical administration study, R406 (2 μL of 25–30 mM suspension) was applied as a drop to the surface of each eye of an anesthetized mouse.
(§3) At serial time points (0.5, 1, 2, 4, and 8 h post-injection, n = 3 for each time point), blood was collected by terminal cardiac puncture after isoflurane anesthesia. Whole-blood samples were centrifuged immediately at 10,000×g for 5 min at 4°C to separate plasma. Once the cardiac puncture and blood collection was completed, the animal was perfused with 10 mL of saline and euthanized by cervical dislocation. Eyes were removed, rinsed in PBS, gently patted dry, then rinsed and dried again. Eyes were dissected and vitreous was collected. Plasma and vitreous samples were put on dry ice immediately after collection and stored at −80°C until analysis. For quantitative analysis methods and assay validation methods and results, see Supplementary Information.
(§4) Plasma and vitreous concentration time data were analyzed using non-compartmental analysis in WinNonlin 6.2 (Pharsight, Mountain View, CA), providing PK parameters including Cmax (maximum observed concentration), Tmax (time to reach maximum observed concentration), AUC (area under the concentration time curve) and MRT (mean residence time). AUC and AUMC (area under the concentration time first moment curve) values were estimated with the linear trapezoidal method, with parameters calculated using mean concentration values at each time point. […]

[3] = Vitreous pharmacokinetics after oral or subconjunctival administration; format: in vivo, mouse; settings: local (subconjunctival), castor oil emulsion 6.5 mM, 65 nmol per eye, mice
Protocol: as §1, §2, §3, §4

[4] = Intraocular and plasma R406 after topical administration (eye drops); format: in vivo, mouse; settings: mice; for R406 levels in the eye at 0.5 h post dosing / R406 levels in the eye at 1 h post dosing / drug in plasma samples: single topical dose; for R406 levels in the eye at 0.5 h post dosing / R406 levels in the eye at 1 h post dosing: drops, 2 μL of 25 mM suspension in 5% HPβCD; for drug in plasma samples: data not shown
Protocol: as §1, §2, §3
To evaluate the topical route for R406 delivery, we tested the intraocular concentration after a single topical dose of R406 free base or an R406 […] salt.

[5] = Maximum solubility in PBS or saline; format: physicochemical
[6] = Concentration and stability of R406 in castor oil and castor oil emulsion; format: physicochemical
Protocol: as §1
An emulsion of 30% castor oil, 5% Cremaphor, 4% T80, 61% PBS was prepared and samples were stored at 4 °C and room temperature (25 °C). Samples were diluted and OD600 for each dilution was measured in triplicate on the day of emulsion preparation (storage time = 0 days) and after 6 days of storage. OD600 was measured using a black Costar clear bottom plate and a Spectramax plate reader.
For storage stability in emulsion, n =4.

[7] = Crashing upon dilution of DMSO stock in PBS; format: physicochemical
Text: Supplement 11095_2014_1399_MOESM1_ESM.docx, table 14: Table S14. R406 phenylsulfonate salt and free base crashing upon dilution of DMSO stock in PBS | column: Measured Concentration

[8] = Vitreous and plasma R406 after intravitreal injection of R788; format: in vivo, mouse; settings: intravitreal injection of R788 in saline, 5 μL per eye of 120 μM; mice
Protocol: For oral delivery of R788, the target dose of 25 mg/kg R788 was administered by oral gavage as a 4 mM solution in 0.01 N citrate buffer, pH 6 ([9]). For subconjunctival administration, R788 was prepared at a concentration of 4 mM in 2% PEG-800 and filtered through a 0.22 μm filter prior to use (see Table S1). R788 was also administered subconjunctivally as a suspension at a concentration of 25 mM in 10% 2-hydroxylpropyl-β-cyclodextrin (HPβCD, Sigma-Aldrich). For subconjunctival administration, R406 phenylsulfonate salt was administered at a concentration of 800–900 μM as a cosolvent solution in a formulation of 5% Cremaphor-eL, 0.5% ethanol, 0.2% Tween 80 and 94.3% PBS, filtered through a 0.22 μm filter prior to use (see Table S2). R406 phenylsulfonate salt was also administered subconjunctivally at a dose of 31.4 mM solution in DMSO. […] R406 or R788 concentration in all formulations was determined by UPLC prior to study (in cases where formulation was filtered before administration, concentration was determined post-filtering) Table I. […]
At serial time points (0.5, 1, 2, 4, and 8 h post-injection, n = 3 for each time point), blood was collected by terminal cardiac puncture after isoflurane anesthesia. […] For quantitative analysis methods and assay validation methods and results, see Supplementary Information.

[9] = Bioconversion of R788 to R406 in mouse vitreous; format: in vitro ADME; settings: extracted mouse vitreous, 37°C, initial 25 μM R788, within 2 h
Protocol: Conversion of R788 to R406 was examined in freshly harvested murine vitreous, 2 U/mL bovine alkaline phosphatase in PBS (positive control), or plain PBS (no enzyme, negative control) at 37°C using a modified version of previously described phosphate prodrug conversion protocols ([9], [12]). Alkaline phosphatase (ALP) from bovine intestinal mucosa was obtained from Invitrogen and was reconstituted and diluted according to the manufacturer’s instructions. Vitreous was harvested from a mixed population of mice, pooled, and kept on ice for 1 - 2 h. The incubation media were pre-warmed to 37°C before the reaction was initiated by addition of 1 mM of R788 in saline (6 μL of R788 in saline into 234 μL of incubation media in a 1.5 mL Eppendorf tube). R788 was diluted into the incubation media at a 1:40 ratio (volume:volume) to mimic the dilution encountered during intravitreal injection in humans (typically 100 μL injection volume into 4–5 mL of human vitreous volume ([13], [14]). Initial estimated concentration of R788 was 25 μM. At the desired time points (0, 5, 10, 20, 30, 45, 60, and 120 min) an aliquot of 25 μl was collected from each incubation vial and transferred to a 1.5 mL Eppendorf tube, containing 25 μl of acetonitrile to terminate the reaction. 3 samples were tested per time point. Samples were stored at −80°C until quantification.

[10] = Co-solvent solution formulation solubility matrix; format: physicochemical; settings: read-out: R788 Solubility
[11] = parameters: method as in PMID 21515735; settings: subconjunctival administration; previous work; cited from earlier work
[12] = parameters: method as in PMID 21515735; settings: previous work; cited from earlier work

## COc1ccc(-c2cc3nccn3c(Nc3ncccc3C(N)=O)n2)cc1OC [BAY-61-3606]
Retinoblastoma cells
  induction of caspase-mediated cell death of retinoblastoma cells in vitro: can induce caspase-mediated cell death
[1]
  blocking proliferation of human orthotopic retinoblastoma xenografts in vivo: efficacious

## COc1cc(Nc2ncc(F)c(Nc3ccc4c(n3)NC(=O)C(C)(C)O4)n2)cc(OC)c1OC [R406 free base]
[2]
  Cmax: 119 nM
  Plasma AUClast: 0.119 µM·h
  Plasma Dose normalized AUC: 0.9 nM∙h/nmol
  Plasma Tlast: 2 h
  Plasma Tmax: 0.5 h
[3]
  Cmax: 169 ± 35.9 nM
  Vitreous AUClast: 0.43 µM·h
  Vitreous Dose normalized AUC: 3.3 nM∙h/nmol
  Vitreous MRT0-4h: 2.19 h
  Vitreous Tlast: 4 h
  Vitreous Tmax: 0.5 h
[3]; listed as R406 base
  Vitreous MRT0-4h: ≥ 2 h
[4]
  R406 levels in the eye at 0.5 h post dosing: 0.1 ± 0.06 µM
  R406 levels in the eye at 1 h post dosing: 0.1 ± 0.1 µM
  drug in plasma samples: No detectable drug
[5]; PBS
  solubility in PBS: insoluble (below the limit of quantitation)
[6]; room temperature
  time stable in castor oil: at least 6 days
[6]; stored in castor oil at room temperature, after 6 days, n=3
  average concentration remaining, % of the initial concentration: 113.3%
[7]; DMSO stock diluted 1 in 10 in PBS prior to filtration (theoretical 1.11 mM)
  Measured Concentration: 965 µM
[7]; DMSO stock diluted 1 in 10 in PBS, 0.22 micron filtered
  Measured Concentration: 7 µM
[7]; DMSO stock diluted 1 in 20 in PBS, 0.22 micron filtered
  Measured Concentration: 6 µM
[7]; DMSO stock, printed 'diluted 1 in 10 in PBS prior to filtration' (second such line, theoretical 557 µM)
  Measured Concentration: 510 µM

## CCCCCCCCCCCCCCCC(=O)O.COc1cc(Nc2ncc(F)c(Nc3ccc4c(n3)NC(=O)C(C)(C)O4)n2)cc(OC)c1OC [R406 palmitate salt]
[4]
  R406 levels in the eye at 0.5 h post dosing: 0.3 ± 0.3 µM
  R406 levels in the eye at 1 h post dosing: 0.3 ± 0.2 µM
  drug in plasma samples: No detectable drug
[4]; topical 40 mM R406 palmitate 5% cyclodextrin suspension, 1-4 hourly doses, sustained for 1.5 h after each application
  vitreous concentration of R406: 1 to 2 µM
[4]; topical delivery in cyclodextrin drops, sustainable via repeated dosing, read-out: vitreous Cmax / intraocular concentration
  Cmax: > 1000 nM

## COc1cc(Nc2ncc(F)c(Nc3ccc4c(n3)N(COP(=O)(O)O)C(=O)C(C)(C)O4)n2)cc(OC)c1OC [R788]
[8]
  R406 levels in plasma samples: BLOQ
[9]
  conversion of R788 to R406: 100%
[5]; PBS, read-out: maximum solubility in PBS
  solubility: 1400 µM (≈ 813 µg/mL)
[5]; saline, read-out: maximum solubility in saline
  solubility: 1200 to 1400 µM (≈ 697 to 813 µg/mL)
[10]; Trial 2: 2% PEG-8000, 98% PBS
  solubility: 3560 µM (≈ 2070 µg/mL)
[10]; aqueous buffer, Trial 3: 0.5% EtOH, 99.5% PBS
  solubility: 1010 µM (≈ 586 µg/mL)
[10]; aqueous buffer, Trial 4: 3% Glycerin, 97% PBS
  solubility: 1130 µM (≈ 656 µg/mL)
[10]; aqueous buffer, Trial 9: 100% PBS
  solubility: 1240 µM (≈ 720 µg/mL)
[10]; aqueous with cosolvent or surfactant or cyclodextrin, Trial 1: 0.1% Tyloxapol, 99.9% PBS
  solubility: 1230 µM (≈ 714 µg/mL)
[10]; aqueous with cosolvent or surfactant or cyclodextrin, Trial 5: 5% Cremaphor-eL, 95% PBS
  solubility: 1430 µM (≈ 830 µg/mL)
[10]; aqueous with cosolvent or surfactant or cyclodextrin, Trial 6: 10% PPG, 90% PBS
  solubility: 1130 µM (≈ 656 µg/mL)
[10]; aqueous with cosolvent or surfactant or cyclodextrin, Trial 7: 15% pPPG, 85% PBS
  solubility: 1530 µM (≈ 888 µg/mL)
[10]; aqueous with cosolvent or surfactant or cyclodextrin, Trial 8: 4% Tween-80, 96% PBS
  solubility: 1710 µM (≈ 993 µg/mL)
[10]; aqueous with cosolvent or surfactant or cyclodextrin, Trial 10: 5% Cremaphor-eL, 4% Tween-80, 91% PBS
  solubility: 1510 µM (≈ 877 µg/mL)
[10]; aqueous with cosolvent or surfactant or cyclodextrin, Trial 11: 15% pPPG, 4% Tween-80, 81% PBS
  solubility: 1840 µM (≈ 1070 µg/mL)
[10]; aqueous with cosolvent or surfactant or cyclodextrin, Trial 12: 5% Cremaphor-eL, 15% pPPG, 80% PBS
  solubility: 2150 µM (≈ 1250 µg/mL)
[10]; aqueous with cosolvent or surfactant or cyclodextrin, Trial 13: 5% Cremaphor-eL, 15% pPPG, 4% Tween-80, 76% PBS
  solubility: 2640 µM (≈ 1530 µg/mL)
[10]; aqueous with cosolvent or surfactant or cyclodextrin, Trial 14: 2% PEG-8000, 5% Cremaphor-eL, 15% pPPG, 4% Tween-80, 74% PBS
  solubility: 3470 µM (≈ 2010 µg/mL)

## COc1ccc(C2=N[C@@H](c3ccc(Cl)cc3)[C@@H](c3ccc(Cl)cc3)N2C(=O)N2CCNC(=O)C2)c(OC(C)C)c1 [nutlin-3a]
[11]
  AUC ratio of vitreous to plasma: 28.6
[12]
  water solubility: approximately 40 μM
